From the NIST ThermoML archive (doi:10.1021/je050503q)

Assay: xn = mol fraction of the nth substance listed
Conditions: Liquid

COCCOCCOCCOC [2,5,8,11-tetraoxadodecane] + FCC(F)(F)F
Conditions	mass density [kg/m3]
283.27 K, 1086 kPa, x2 = 0.9485	1245.33
283.27 K, 2000 kPa, x2 = 0.9485	1248.44
283.27 K, 3016 kPa, x2 = 0.9485	1251.83
283.27 K, 4003 kPa, x2 = 0.9485	1255.03
283.27 K, 5009 kPa, x2 = 0.9485	1258.22
283.27 K, 6019 kPa, x2 = 0.9485	1261.33
283.28 K, 1070 kPa, x2 = 0.9798	1255.94
283.28 K, 1986 kPa, x2 = 0.9798	1259.56
283.28 K, 2984 kPa, x2 = 0.9798	1263.39
283.28 K, 4004 kPa, x2 = 0.9798	1267.2
283.28 K, 4996 kPa, x2 = 0.9798	1270.8
283.28 K, 5989 kPa, x2 = 0.9798	1274.3
283.29 K, 1047 kPa, x2 = 0.9655	1251.56
283.29 K, 1992 kPa, x2 = 0.9655	1255.06
283.29 K, 2996 kPa, x2 = 0.9655	1258.69
283.29 K, 3988 kPa, x2 = 0.9655	1262.16
283.29 K, 4999 kPa, x2 = 0.9655	1265.62
283.29 K, 5987 kPa, x2 = 0.9655	1268.91
293.3 K, 1086 kPa, x2 = 0.9485	1215.38
293.3 K, 2016 kPa, x2 = 0.9485	1219.06
293.3 K, 2998 kPa, x2 = 0.9485	1222.84
293.3 K, 3985 kPa, x2 = 0.9485	1226.51
293.3 K, 5000 kPa, x2 = 0.9485	1230.18
293.3 K, 6018 kPa, x2 = 0.9485	1233.75
293.31 K, 1086 kPa, x2 = 0.9798	1222.61
293.31 K, 2003 kPa, x2 = 0.9798	1226.87
293.31 K, 2985 kPa, x2 = 0.9798	1231.29
293.31 K, 4010 kPa, x2 = 0.9798	1235.72
293.31 K, 4992 kPa, x2 = 0.9798	1239.84
293.31 K, 6009 kPa, x2 = 0.9798	1243.96
293.32 K, 1047 kPa, x2 = 0.9655	1219.81
293.32 K, 2002 kPa, x2 = 0.9655	1223.94
293.32 K, 2997 kPa, x2 = 0.9655	1228.11
293.32 K, 3984 kPa, x2 = 0.9655	1232.11
293.32 K, 5001 kPa, x2 = 0.9655	1236.1
293.32 K, 5994 kPa, x2 = 0.9655	1239.88
303.33 K, 1176 kPa, x2 = 0.9798	1187.73
303.33 K, 1189 kPa, x2 = 0.9485	1184.28
303.33 K, 1998 kPa, x2 = 0.9485	1188.03
303.33 K, 2990 kPa, x2 = 0.9485	1192.49
303.33 K, 3984 kPa, x2 = 0.9485	1196.79
303.33 K, 5011 kPa, x2 = 0.9485	1201.05
303.33 K, 5992 kPa, x2 = 0.9485	1205.02
303.34 K, 2006 kPa, x2 = 0.9798	1192.33
303.34 K, 3006 kPa, x2 = 0.9798	1197.65
303.34 K, 4000 kPa, x2 = 0.9798	1202.73
303.34 K, 4990 kPa, x2 = 0.9798	1207.56
303.34 K, 6008 kPa, x2 = 0.9798	1212.35
303.35 K, 1189 kPa, x2 = 0.9655	1186.88
303.35 K, 2013 kPa, x2 = 0.9655	1191.11
303.35 K, 2992 kPa, x2 = 0.9655	1195.95
303.35 K, 4008 kPa, x2 = 0.9655	1200.76
303.35 K, 4992 kPa, x2 = 0.9655	1205.25
303.35 K, 5987 kPa, x2 = 0.9655	1209.62
313.35 K, 1434 kPa, x2 = 0.9485	1152.06
313.35 K, 1434 kPa, x2 = 0.9798	1151.46
313.35 K, 2004 kPa, x2 = 0.9798	1155.29
313.35 K, 2014 kPa, x2 = 0.9485	1155.26
313.35 K, 2982 kPa, x2 = 0.9798	1161.59
313.35 K, 2990 kPa, x2 = 0.9485	1160.47
313.35 K, 3990 kPa, x2 = 0.9485	1165.56
313.35 K, 4985 kPa, x2 = 0.9485	1170.41
313.35 K, 4986 kPa, x2 = 0.9798	1173.51
313.35 K, 5997 kPa, x2 = 0.9485	1175.14
313.36 K, 1436 kPa, x2 = 0.9655	1152.44
313.36 K, 3010 kPa, x2 = 0.9655	1161.91
313.36 K, 3986 kPa, x2 = 0.9798	1167.71
313.36 K, 5983 kPa, x2 = 0.9798	1179.03
313.37 K, 2008 kPa, x2 = 0.9655	1155.97
313.37 K, 4000 kPa, x2 = 0.9655	1167.49
313.37 K, 5010 kPa, x2 = 0.9655	1172.9
313.37 K, 5984 kPa, x2 = 0.9655	1177.91
323.39 K, 1731 kPa, x2 = 0.9798	1112.96
323.39 K, 1737 kPa, x2 = 0.9485	1118.26
323.39 K, 1989 kPa, x2 = 0.9798	1115.09
323.39 K, 1994 kPa, x2 = 0.9485	1119.99
323.39 K, 3007 kPa, x2 = 0.9485	1126.53
323.39 K, 3987 kPa, x2 = 0.9485	1132.49
323.39 K, 4990 kPa, x2 = 0.9485	1138.29
323.39 K, 5982 kPa, x2 = 0.9485	1143.72
323.4 K, 3001 kPa, x2 = 0.9798	1123.14
323.4 K, 4006 kPa, x2 = 0.9798	1130.6
323.4 K, 4997 kPa, x2 = 0.9798	1137.51
323.4 K, 5982 kPa, x2 = 0.9798	1144
323.41 K, 1737 kPa, x2 = 0.9655	1116.04
323.41 K, 1998 kPa, x2 = 0.9655	1118.03
323.41 K, 3002 kPa, x2 = 0.9655	1125.33
323.41 K, 4001 kPa, x2 = 0.9655	1132.15
323.41 K, 4985 kPa, x2 = 0.9655	1138.48
323.41 K, 6012 kPa, x2 = 0.9655	1144.72
